# Experimental data as given in PubChem BioAssay AID2060499 (Molecular Pharmacology Branch, DTP, NCI, 2025).
# Test system: 777334-354-R2-J4-PDC tumor spheroids with HUVEC/MSC, viability
# Test: Anticancer human tumor 777334-354-R2-J4-PDC patient-derived pancreatic adenocarcinoma cell line growth inhibition [GQUAD]
# Details: for IC50: curve of first compound; for viability, T/C: stronger effect = lower value
# Method in brief: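 Multi-cell-type spheroids of tumor cells with HUVEC and mesenchymal stem cells, treated with drug combinations. Concentrations descend in half-log steps from near clinical Cmax, or from 10 microM where Cmax is unknown; viability read-out.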
# [1] = second compound 0.0316 µM, first compound 0.0316 µM
# [2] = second compound 0.0316 µM, first compound 0.1 µM
# [3] = second compound 0.0316 µM, first compound 0.316 µM
# [4] = second compound 0.0316 µM, first compound 1 µM
# [5] = second compound 0.0316 µM, first compound 3.16 µM
# [6] = second compound 0.0316 µM, first compound 10 µM
# [7] = second compound 0.1 µM, first compound 0.0316 µM
# [8] = second compound 0.1 µM, first compound 0.1 µM
# [9] = second compound 0.1 µM, first compound 0.316 µM
# [10] = second compound 0.1 µM, first compound 1 µM
# [11] = second compound 0.1 µM, first compound 3.16 µM
# [12] = second compound 0.1 µM, first compound 10 µM
# [13] = second compound 0.316 µM, first compound 0.0316 µM
# [14] = second compound 0.316 µM, first compound 0.1 µM
# [15] = second compound 0.316 µM, first compound 0.316 µM
# [16] = second compound 0.316 µM, first compound 1 µM
# [17] = second compound 0.316 µM, first compound 3.16 µM
# [18] = second compound 0.316 µM, first compound 10 µM
# [19] = second compound 1 µM, first compound 0.0316 µM
# [20] = second compound 1 µM, first compound 0.1 µM
# [21] = second compound 1 µM, first compound 0.316 µM
# [22] = second compound 1 µM, first compound 1 µM
# [23] = second compound 1 µM, first compound 3.16 µM
# [24] = second compound 1 µM, first compound 10 µM
# [25] = second compound 3.16 µM, first compound 0.0316 µM
# [26] = second compound 3.16 µM, first compound 0.1 µM
# [27] = second compound 3.16 µM, first compound 0.316 µM
# [28] = second compound 3.16 µM, first compound 1 µM
# [29] = second compound 3.16 µM, first compound 3.16 µM
# [30] = second compound 3.16 µM, first compound 10 µM
# [31] = second compound 10 µM, first compound 0.0316 µM
# [32] = second compound 10 µM, first compound 0.1 µM
# [33] = second compound 10 µM, first compound 0.316 µM
# [34] = second compound 10 µM, first compound 1 µM
# [35] = second compound 10 µM, first compound 3.16 µM
# [36] = second compound 10 µM, first compound 10 µM
# 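Further: spheroids exposed to compounds for 7 days before readout.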
structure (smiles),measurement,setting,value
COc1ncnc(C2CC2)c1-c1ncc2cnn(Cc3ccc(-c4nc(C(F)(F)F)cn4C(C)C)cc3)c2n1 + CN(C)c1ccc(Nc2c3ccc(NC(=O)CCN4CCCC4)cc3nc3cc(NC(=O)CCN4CCCC4)ccc23)cc1,IC50,second compound 0.0316 µM,> 10000 nM
same,IC50,second compound 0.1 µM,> 10000 nM
same,IC50,second compound 0.316 µM,> 10000 nM
same,IC50,second compound 1 µM,> 10000 nM
same,IC50,second compound 3.16 µM,> 10000 nM
same,IC50,second compound 10 µM,> 10000 nM
same,"viability, T/C",[1],103%
same,"viability, T/C",[2],94.8%
same,"viability, T/C",[3],108%
same,"viability, T/C",[4],95.7%
same,"viability, T/C",[5],105%
same,"viability, T/C",[6],111%
same,"viability, T/C",[7],104%
same,"viability, T/C",[8],91.1%
same,"viability, T/C",[9],94.4%
same,"viability, T/C",[10],84.5%
same,"viability, T/C",[11],100%
same,"viability, T/C",[12],98.3%
same,"viability, T/C",[13],97.7%
same,"viability, T/C",[14],94.5%
same,"viability, T/C",[15],94%
same,"viability, T/C",[16],95%
same,"viability, T/C",[17],109%
same,"viability, T/C",[18],105%
same,"viability, T/C",[19],96.2%
same,"viability, T/C",[20],101%
same,"viability, T/C",[21],94.5%
same,"viability, T/C",[22],93.8%
same,"viability, T/C",[23],106%
same,"viability, T/C",[24],96.8%
same,"viability, T/C",[25],84.1%
same,"viability, T/C",[26],85.1%
same,"viability, T/C",[27],92.6%
same,"viability, T/C",[28],94.2%
same,"viability, T/C",[29],97.2%
same,"viability, T/C",[30],91.9%
same,"viability, T/C",[31],81.2%
same,"viability, T/C",[32],73.5%
same,"viability, T/C",[33],80.1%
same,"viability, T/C",[34],75.6%
same,"viability, T/C",[35],70.6%
same,"viability, T/C",[36],58.4%
CC1COCCN1c1cc(-c2ccnn2C)c2ccnc(-c3ccn[nH]3)c2n1 (stereo not given) + Cc1[nH]c2ccc(F)cc2c1-c1nc2c3cccnc3c3ncccc3c2[nH]1,IC50,second compound 0.0316 µM,894 nM
same,IC50,second compound 0.1 µM,834 nM
same,IC50,second compound 0.316 µM,483 nM
same,IC50,second compound 1 µM,479 nM
same,IC50,second compound 3.16 µM,< 31.6 nM
same,IC50,second compound 10 µM,< 31.6 nM
same,"viability, T/C",[1],91.3%
same,"viability, T/C",[2],74.2%
same,"viability, T/C",[3],62.4%
same,"viability, T/C",[4],44.4%
same,"viability, T/C",[5],44%
same,"viability, T/C",[6],31.1%
same,"viability, T/C",[7],93.7%
same,"viability, T/C",[8],67.1%
same,"viability, T/C",[9],63.5%
same,"viability, T/C",[10],46.4%
same,"viability, T/C",[11],41.5%
same,"viability, T/C",[12],29.4%
same,"viability, T/C",[13],90.9%
same,"viability, T/C",[14],79.6%
same,"viability, T/C",[15],48.7%
same,"viability, T/C",[16],46.6%
same,"viability, T/C",[17],39.5%
same,"viability, T/C",[18],29.7%
same,"viability, T/C",[19],68.7%
same,"viability, T/C",[20],65.2%
same,"viability, T/C",[21],53.2%
same,"viability, T/C",[22],39.9%
same,"viability, T/C",[23],35.6%
same,"viability, T/C",[24],19.1%
same,"viability, T/C",[25],26.4%
same,"viability, T/C",[26],23.9%
same,"viability, T/C",[27],18.9%
same,"viability, T/C",[28],11.1%
same,"viability, T/C",[29],8.41%
same,"viability, T/C",[30],8.24%
same,"viability, T/C",[31],33.5%
same,"viability, T/C",[32],19.5%
same,"viability, T/C",[33],14.9%
same,"viability, T/C",[34],11.7%
same,"viability, T/C",[35],12.7%
same,"viability, T/C",[36],11.6%
CC1COCCN1c1cc(C2(O)CC3CCC(C2)O3)c2cnn(-c3ccn[nH]3)c2n1 (stereo not given) + Cc1[nH]c2ccc(F)cc2c1-c1nc2c3cccnc3c3ncccc3c2[nH]1,IC50,second compound 0.0316 µM,302 nM
same,IC50,second compound 0.1 µM,364 nM
same,IC50,second compound 0.316 µM,384 nM
same,IC50,second compound 1 µM,186 nM
same,IC50,second compound 3.16 µM,< 31.6 nM
same,IC50,second compound 10 µM,< 31.6 nM
same,"viability, T/C",[1],93.8%
same,"viability, T/C",[2],59.3%
same,"viability, T/C",[3],52.8%
same,"viability, T/C",[4],38.3%
same,"viability, T/C",[5],33.2%
same,"viability, T/C",[6],19%
same,"viability, T/C",[7],98.7%
same,"viability, T/C",[8],66.1%
same,"viability, T/C",[9],56%
same,"viability, T/C",[10],36.5%
same,"viability, T/C",[11],31.9%
same,"viability, T/C",[12],23%
same,"viability, T/C",[13],84.6%
same,"viability, T/C",[14],67.1%
same,"viability, T/C",[15],50.6%
same,"viability, T/C",[16],39.8%
same,"viability, T/C",[17],31.4%
same,"viability, T/C",[18],20.8%
same,"viability, T/C",[19],66.8%
same,"viability, T/C",[20],56%
same,"viability, T/C",[21],44.9%
same,"viability, T/C",[22],31.6%
same,"viability, T/C",[23],21.3%
same,"viability, T/C",[24],16.9%
same,"viability, T/C",[25],25.2%
same,"viability, T/C",[26],18.8%
same,"viability, T/C",[27],11.6%
same,"viability, T/C",[28],8.38%
same,"viability, T/C",[29],6.83%
same,"viability, T/C",[30],4.02%
same,"viability, T/C",[31],21.8%
same,"viability, T/C",[32],16.9%
same,"viability, T/C",[33],12.8%
same,"viability, T/C",[34],7.12%
same,"viability, T/C",[35],7.7%
same,"viability, T/C",[36],4.01%
CC1COCCN1c1cc(C2(S(C)(=N)=O)CC2)nc(-c2ccnc3[nH]ccc23)n1 (stereo not given) + Cc1[nH]c2ccc(F)cc2c1-c1nc2c3cccnc3c3ncccc3c2[nH]1,IC50,second compound 0.0316 µM,> 10000 nM
same,IC50,second compound 0.1 µM,> 10000 nM
same,IC50,second compound 0.316 µM,> 10000 nM
same,IC50,second compound 1 µM,7070 nM
same,IC50,second compound 3.16 µM,< 31.6 nM
same,IC50,second compound 10 µM,< 31.6 nM
same,"viability, T/C",[1],109%
same,"viability, T/C",[2],98.9%
same,"viability, T/C",[3],108%
same,"viability, T/C",[4],100%
same,"viability, T/C",[5],87.7%
same,"viability, T/C",[6],62.2%
same,"viability, T/C",[7],113%
same,"viability, T/C",[8],92.7%
same,"viability, T/C",[9],118%
same,"viability, T/C",[10],85.8%
same,"viability, T/C",[11],94.5%
same,"viability, T/C",[12],74.8%
same,"viability, T/C",[13],94.8%
same,"viability, T/C",[14],97.7%
same,"viability, T/C",[15],88.3%
same,"viability, T/C",[16],96.2%
same,"viability, T/C",[17],89.9%
same,"viability, T/C",[18],56%
same,"viability, T/C",[19],88.7%
same,"viability, T/C",[20],93.8%
same,"viability, T/C",[21],87.1%
same,"viability, T/C",[22],75.5%
same,"viability, T/C",[23],67.9%
same,"viability, T/C",[24],42.7%
same,"viability, T/C",[25],41.8%
same,"viability, T/C",[26],27.1%
same,"viability, T/C",[27],35%
same,"viability, T/C",[28],22.8%
same,"viability, T/C",[29],25.8%
same,"viability, T/C",[30],12%
same,"viability, T/C",[31],36%
same,"viability, T/C",[32],29.2%
same,"viability, T/C",[33],29.6%
same,"viability, T/C",[34],18.9%
same,"viability, T/C",[35],20.7%
same,"viability, T/C",[36],11.1%
COc1ccc([C@@H](O)c2cc(-c3ncnc4cc(N5CCOCC5)ccc34)c(F)cc2Cl)nn1 + Cc1[nH]c2ccc(F)cc2c1-c1nc2c3cccnc3c3ncccc3c2[nH]1,IC50,second compound 0.0316 µM,3890 nM
same,IC50,second compound 0.1 µM,3880 nM
same,IC50,second compound 0.316 µM,3440 nM
same,IC50,second compound 1 µM,1890 nM
same,IC50,second compound 3.16 µM,< 31.6 nM
same,IC50,second compound 10 µM,< 31.6 nM
same,"viability, T/C",[1],102%
same,"viability, T/C",[2],91%
same,"viability, T/C",[3],95%
same,"viability, T/C",[4],76%
same,"viability, T/C",[5],54.5%
same,"viability, T/C",[6],30.3%
same,"viability, T/C",[7],110%
same,"viability, T/C",[8],98.8%
same,"viability, T/C",[9],93%
same,"viability, T/C",[10],71%
same,"viability, T/C",[11],55.4%
same,"viability, T/C",[12],30.5%
same,"viability, T/C",[13],92.8%
same,"viability, T/C",[14],92.9%
same,"viability, T/C",[15],88.2%
same,"viability, T/C",[16],80.3%
same,"viability, T/C",[17],51.4%
same,"viability, T/C",[18],28.9%
same,"viability, T/C",[19],79.9%
same,"viability, T/C",[20],89.9%
same,"viability, T/C",[21],76.8%
same,"viability, T/C",[22],61.8%
same,"viability, T/C",[23],40.6%
same,"viability, T/C",[24],22.2%
same,"viability, T/C",[25],46.1%
same,"viability, T/C",[26],43.4%
same,"viability, T/C",[27],36.7%
same,"viability, T/C",[28],17.7%
same,"viability, T/C",[29],13.6%
same,"viability, T/C",[30],9.99%
same,"viability, T/C",[31],35.4%
same,"viability, T/C",[32],29.1%
same,"viability, T/C",[33],27.8%
same,"viability, T/C",[34],15.2%
same,"viability, T/C",[35],13%
same,"viability, T/C",[36],12.6%
